Holding throughout (type): in vivo
Experiment [1] has as its system sugar cane Variety RB 86-7515. Kind of experiment: Greenhouse pot test, effect of formulated clothianidin on vigour. Particulars: carretels; result in words.
Method: Greenhouse test with sugarcane buds growing in pots were conducted to study the effect of clothianidin equivalent to an application rate of 200 g ai. ha^−1 on “vigour”, evaluating tillers, plant height, leaf width and culm diameter. This trial was conducted on sugar cane Variety RB 86-7515.
1) carretel with one bud treated with clothianidin (200 g ai. ha^−1) 2) carretel with one bud treated with clothianidin (200 g ai. ha^−1)+15% v/v of polymer 3) stalk with 3 buds untreated 4) carretel with one bud untreated+15% v/v of polymer 5) carretel with one bud untreated 6) stalk with 3 buds treated with clothianidin (200 g ai. ha^−1).
Twenty 1 L pots were filled with 16 L of clay soil, 1.6 L of sand and 8 g of nitrogen, 28 g of phosphorus (P2O5) and 16 g of potassium (K2O). Six carretels of 4 cm length with one bud were planted in each pot (treatments 1, 2, 4 and 5). Two stalks with three buds were planted in each control pot (treatments 3 and 6) to simulate conventional planting. A layer of 3 cm of soil was used to cover the carretels. The carretels of treatments 1 and 2 were treated with 200 g ai.ha^−1 of clothianidin, by dipping the carretels in a slurry for 3 min. The stalks were treated simulating a furrow application at 100 L.ha^−1 of slurry. The pots were maintained with adequate moisture during the test. […]
The subject of experiment [2] is sugar cane Variety RB 86-7515. As to the kind of experiment: Greenhouse pot test, effect of formulated fipronil on vigour. Particulars: result in words.
Method: Greenhouse test with sugarcane buds growing in pots were conducted to study the effect of fipronil equivalent to an application rate of 200 g. ha^−1 on “vigour”, evaluating tillers, plant height, leaf width and culm diameter on sugar cane Variety RB 86-7515.
Twenty 1 L pots were filled with 16 L of clay soil, 1.6 L of sand and 8 g of nitrogen, 28 g of phosphorus (P2O5) and 16 g of potassium (K2O). Six carretels of 4 cm length with one bud were planted in each pot (treatments 1, 2, 4 and 5). Two stalks with three buds were planted in each control pot (treatments 3 and 6) to simulate conventional planting. A layer of 3 cm of soil was used to cover the carretels. The carretels of treatments 1 and 2 were treated with 200 g ai.ha^−1 of fipronil, by dipping the carretels in the slurry for 3 min, based on the uptake capacity of carretels. The stalks were treated simulating a furrow application at 100 L.ha^−1 of slurry. Experimental design adopted was randomized complete block with four replications. The pots were maintained with adequate moisture during the test. Evaluations of: plant height, leaf width, culm diameter and number of tillers were done at 20, 30 and 42 days after planting.
In experiment [3] the test system is sugar cane Variety RB 86 7515. As to the kind of experiment: Greenhouse pot test, effect of formulated imidacloprid on vigour. The settings on record: result in words.
From the text: 1) carretel with one bud treated with Imidacloprid (1200 g. ha^−1) 2) carretel with one bud treated with Imidacloprid (1200 g. ha^−1)+15% v/v of polymer 3) stalk with 3 buds untreated 4) carretel with one bud untreated 5) carretel with one bud untreated+15% v/v of polymer 6) stalk with 3 buds treated with Imidacloprid (1200 g. ha^−1).
Twenty 1 L pots were filled with 16 L of clay soil, 1.6 L of sand and 8 g of nitrogen, 28 g of phosphorus (P2O5) and 16 g of potassium (K2O). Six carretels of 4 cm length with one bud were planted in each pot (treatments 1, 2, 4 and 5). Two stalks with three buds were planted in each control pot (treatments 3 and 6) to simulate conventional planting. A layer of 3 cm of soil was used to cover the carretels. The carretels of treatments 1 and 2 were treated with 1200 g ai.ha^−1 of imidacloprid, by dipping the carretels in the slurry for 3 min, based on the uptake capacity of carretels. The stalks were treated simulating a furrow application at 100 L.ha^−1 of slurry. Experimental design adopted was randomized complete block with four replications. The pots were maintained with adequate moisture during the test. Evaluations of: plant height, leaf width, culm diameter and number of tillers were done at 20, 30 and 42 days after planting.
Experiment [4] deals with sugar cane Variety RB 86-7515. As to the kind of experiment: Greenhouse pot test, effect of formulated thiamethoxam on vigour. The settings on record: result in words. On the procedure:
This trial was conducted on Variety RB 86-7515.

The subject of experiment [5] is sugar cane Variety RB 86-7515. As to the kind of experiment: Greenhouse pot test, effect of formulated abamectin on vigour.
Method: Greenhouse test with sugarcane buds growing in pots were conducted to study the effect of formulated abamectin regarding “vigour”, tillers, plant height, leaf width and culm diameter on sugar cane Variety RB 86-7515.
1) carretel with one bud treated with abamectin 2) carretel with one bud treated with abamectin+15% v/v of polymer 3) stalk with 3 buds untreated 4) carretel with one bud untreated 5) carretel with one bud untreated+15% v/v of polymer 6) stalk with 3 buds treated with abamectin.
Twenty 1 L pots were filled with 16 L of clay soil, 1.6 L of sand and 8 g of nitrogen, 28 g of phosphorus (P2O5) and 16 g of potassium (K2O). Six carretels of 4 cm length with only one bud were planted in each pot (treatments 1, 2, 4 and 5). Two stalks with three buds were planted in each control pot (treatments 3 and 6) to simulate conventional planting. A layer of 3 cm of soil was used to cover the carretels. The carretels of treatments 1, 2 were treated with 200 ml/ha of abamectin, by dipping the carretels in the slurry for 3 min, based on the uptake capacity of carretels. The stalks were treated simulating a furrow application at 100 L.ha^−1 of slurry. Experimental design adopted was randomized complete block with four replications. The pots were maintained with adequate moisture during the test. Evaluations of: plant height, leaf width, culm diameter and number of tillers were done at 20, 30 and 42 days after planting.

As for `CN/C(=N\[N+](=O)[O-])NCc1cnc(Cl)s1` [Clothianidin, clothianidin], in experiment [1], the “number of tillers in comparison with the corresponding control experiment (untreated, one-bud)” value was “increased” and the “plant height in comparison with the corresponding control experiment (untreated, one-bud)” value is reported as “slight reduction”.
For `N#Cc1nn(-c2c(Cl)cc(C(F)(F)F)cc2Cl)c(N)c1[S+]([O-])C(F)(F)F` (stereo not drawn) [Fipronil, fipronil], in experiment [2], the “height of the resultant plants in comparison with the control” value is given as “decreased” and the “number of tillers in comparison with the control” value (shortened to “number … with the control”) was “increased”.
Consider `O=[N+]([O-])NC1=NCCN1Cc1ccc(Cl)nc1` [Imidacloprid, imidacloprid], for which, in experiment [3], the “number … with the control” value was “increase” and the “size of the effect compared with the other active ingredients” value is “less pronounced than with the other active ingredients”.
As for `CN1COCN(Cc2cnc(Cl)s2)/C1=N\[N+](=O)[O-]` [Thiamethoxam, thiamethoxam], in experiment [4] (carretels), the “number of tillers in comparison with the corresponding controls” value is “increased” and the “plant height in comparison with the corresponding controls” value is on record as “reduced”. Moreover, the “overall "quality" compared with the other treatments” value in experiment [4] (practical assessment, not apparent from the listed parameters) is given as “increase in “quality” greater than the other treatments”.
With abamectin, in experiment [5] (Carretel with one bud, 100 g ai/ha, dipped in slurry 3 min, 42 days after planting), the Tillers is given as 14 number. Further, in experiment [5] (result in words), the “number … with the control” value was “increase” and the “plant height in comparison with the control” value is given as “decrease”.
